# Patent publication US20060183677A1, “Novel exendin agonist formulations and methods of administration thereof” (priority 2002, published 2006)
# What was measured:
# Sprague-Dawley rats = test: Insulinotropic action during intravenous glucose challenge in rats (Example 5); type: in vivo; conditions: 30 pmol/kg/min i.v.
# humans = conditions: acute treatment; cited from earlier work
# diabetic db/db mice = test: Glucose lowering in diabetic db/db mice (dose response); type: in vivo
# Experimental: C57BLKS/J-m-db/db mice, at least 3 months of age were utilized for the study. The mice were obtained from The Jackson Laboratory and allowed to acclimate for at least one week before use. Mice were housed in groups of ten at 22° C.±1° C. with a 12:12 light:dark cycle, with lights on at 6 a.m. All animals were deprived of food for 2 hours before taking baseline blood samples. Approximately 70 μl of blood was drawn from each mouse via eye puncture, after a light anesthesia with metophane. […] Blood samples were drawn again, using the same procedure, after exactly one hour from the injections, and plasma glucose concentrations were measured. For each animal, the % change in plasma value, from baseline value, was calculated and a dose dependent relationship was evaluated using Graphpad Prizm™ software.
substance,measurement,setting,value
GLP-1[7-36]NH2,60-min glucose AUC,Sprague-Dawley rats,1096 ± 68 mM·min
same,plasma glucose after glucose injection,Sprague-Dawley rats; D-glucose […] i.v.,23.7 mM
same,increase of 60-min insulin AUC versus saline-treated rats,Sprague-Dawley rats; n.s. versus saline,20%
same,acute effect on insulin sensitivity,humans,appears not to immediately alter insulin sensitivity
same,Glucose-lowering ED50,diabetic db/db mice,20.6 µg
